# In patent US20090196912A1, “Pyridinylamines” (GPC Botech AG, priority 2004, published 2009):
# Biological target: c-kit (Homo sapiens, UniProt P10721)
# Assay: Generic kinase assay (33P-ATP, Myelin Basic Protein)
# Type: biochemical
# Settings: 1 h; class symbol: % inhibition at 10 μM or IC50; read-out: Inhibitory effect on target c-kit
# Description: (§1) In order to determine the inhibitory effect of the compounds of the subject invention on various target enzymes a generic kinase assay was established.
# (§2) Reactions were performed in 96-Well U-bottom microtiter plates (Greiner Bio-One; Frickenhausen/Germany, Cat. No. 650161), hereinafter designated “Assay Plates”. 10 μl of a solution comprising 40 μM Myelin Basic Protein (Invitrogen; Carlsbad, Calif./USA; Cat. No. 13228-010) and 4 μM ATP in three-fold concentrated Reaction Buffer (60 mM Tris-HCl, pH 7.5; 30 mM MgCl2; 3 mM dithiothreitol) were added into each well of the Assay Plate. 10 μl of serial dilutions of the compounds of the subject invention, dissolved in 4% DMSO, were then added into each well, except for Positive Control. Wells (C+ wells) and Negative Control Wells (C− wells). 10 μl of 4% DMSO without compounds were added to C+ and C− wells. 10 μl of a 500 mM solution of EDTA in water was then added to C− wells. Then 10 μl of a solution containing 50 μCi/ml Adenosine 5′-[γ-^33P]triphosphate in water was added to each well. To start the reaction 10 μl of the kinase to be assayed was added to each well. The optimal amount of kinase in the assay was determined to be the amount which yields to a turn-over of about 10% of ATP. Assay Plates were incubated for one hour at room temperature. Then 10 μl of a 500 mM solution of EDTA in water was added to each well except C− wells. Samples were now ready for measurement.
# (§3) Measurements were preformed in 96-Well MAPH-Filter Plates (Millipore; Billerica, Mass./United States; Cat. No. MAPHNOB50), hereinafter designated “Measurement Plates”. Measurement Plates were washed with 200 μl of a 0.75% H3PO4 solution per well. The H3PO4 solution was exhausted using a Millipore vacuum station. 60 μl of a 0.75% H3PO4 solution was then added into each well, followed by the transfer of 30 μl of each well from the Assay Plate into the corresponding wells of the Measurement Plate. The Measurement Plate was incubated for 30 minutes at room temperature. Thereafter each well was washed three times with 200 μl of a 0.75% H3PO4 solution using a Millipore vacuum station. 20 μl of scintillation liquid (Supermix Liquid Szintillator; Perkin Elmer, Wellesley. Mass./United States; Cat. No. 1200-439) was then added to each well of the Measurement Plate. The plate was sealed and stored for 30 minutes in the darkness before radioactivity was quantified in a MicroBeta Scintillation Counter (Perkin Elmer, Wellesley. Mass./United States).
# c-kit, sequence (P10721 26-976): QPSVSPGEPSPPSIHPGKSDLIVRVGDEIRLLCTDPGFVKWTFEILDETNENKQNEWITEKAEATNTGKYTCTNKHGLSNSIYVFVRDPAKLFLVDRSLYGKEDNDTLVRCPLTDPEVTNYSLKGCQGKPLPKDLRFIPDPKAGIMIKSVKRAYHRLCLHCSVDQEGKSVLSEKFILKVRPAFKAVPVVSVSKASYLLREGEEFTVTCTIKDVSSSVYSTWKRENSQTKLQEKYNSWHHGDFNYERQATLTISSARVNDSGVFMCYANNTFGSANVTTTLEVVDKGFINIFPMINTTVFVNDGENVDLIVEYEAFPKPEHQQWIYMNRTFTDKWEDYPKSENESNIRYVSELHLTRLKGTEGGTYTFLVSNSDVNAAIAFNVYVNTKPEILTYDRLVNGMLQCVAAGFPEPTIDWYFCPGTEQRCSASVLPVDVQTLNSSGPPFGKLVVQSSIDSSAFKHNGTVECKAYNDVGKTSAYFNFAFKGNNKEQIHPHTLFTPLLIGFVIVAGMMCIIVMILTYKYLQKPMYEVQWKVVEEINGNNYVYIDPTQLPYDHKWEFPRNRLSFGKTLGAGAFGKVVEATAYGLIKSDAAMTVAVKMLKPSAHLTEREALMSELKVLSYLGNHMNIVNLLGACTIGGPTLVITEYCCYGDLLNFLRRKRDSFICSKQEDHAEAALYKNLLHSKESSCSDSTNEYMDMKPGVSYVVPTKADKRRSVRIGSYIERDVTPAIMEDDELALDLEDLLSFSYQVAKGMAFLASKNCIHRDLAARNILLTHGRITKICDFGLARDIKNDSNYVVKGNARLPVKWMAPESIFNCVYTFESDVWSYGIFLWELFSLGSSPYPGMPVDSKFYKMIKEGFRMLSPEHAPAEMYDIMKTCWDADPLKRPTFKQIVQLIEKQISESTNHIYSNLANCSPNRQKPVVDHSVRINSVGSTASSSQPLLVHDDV
row,Compound,inhibition at 10 µM
1,"CC(=O)Nc1cccc(-c2cncc(Nc3ccccc3)c2)c1 [Compound 194, N-[3-(5-Phenylamino-pyridin-3-yl)-phenyl]-acetamide]",50 to 90%
2,"CS(=O)(=O)c1ccc(-c2cncc(NCc3cccc(O)c3)c2)cc1 [Compound 206, 3-{[5-(4-Methanesulfonyl-phenyl)-pyridin-3-ylamino]-methyl}-phenol]",50 to 90%
3,"COc1cncc(-c2cncc(NCc3cccc(O)c3)c2)c1 [Compound 222, 3-[(5′-Methoxy-[3,3′]bipyridinyl-5-ylamino)-methyl]-phenol]",50 to 90%
4,"Oc1cccc(CNc2cncc(-c3cncnc3)c2)c1 [Compound 195, 3-[(5-Pyrimidin-5-yl-pyridin-3-ylamino)-methyl]-phenol]",50 to 90%

# Next, values leading:
row,inhibition at 10 µM,Compound
1,> 90%,"CS(=O)(=O)Nc1cccc(-c2cncc(NCc3cccc(O)c3)c2)c1 [Compound 226, N-{3-[5-(3-Hydroxy-benzylamino)-pyridin-3-yl]-phenyl}-methanesulfonamide]"
2,50 to 90%,"Oc1cccc(CCNc2cncc(-c3cccc(O)c3)c2)c1 [Compound 244, 3-{5-[2-(3-Hydroxy-phenyl)-ethylamino]-pyridin-3-yl}-phenol]"
3,50 to 90%,"CN(C)CCNC(=O)c1cccc(-c2cncc(NCc3cccc(O)c3)c2)c1 [Compound 224, N-(2-Dimethylamino-ethyl)-3-[5-(3-hydroxy-benzylamino)-pyridin-3-yl]-benzamide]"

# System: PDGFR
# Assay: as above
# Type: biochemical
# Settings: class symbol: % inhibition at 10 μM or IC50
# Description: as §1, §2, §3
row,Compound,Inhibitory effect on target PDGFR
1,"COC(=O)c1cccc(CNc2cncc(-c3cccc(O)c3)c2)c1 [Compound 264, 3-{[5-(3-Hydroxy-phenyl)-pyridin-3-ylamino]mθthyl}-benzoic acid methyl ester]",A (A: 50-90% inhibition at 10 μM enzyme concentration)
2,"CC(=O)Nc1cccc(-c2cncc(Nc3ccccc3)c2)c1 [Compound 194, N-[3-(5-Phenylamino-pyridin-3-yl)-phenyl]-acetamide]",A (A: 50-90% inhibition at 10 μM enzyme concentration)
3,"CS(=O)(=O)Nc1cccc(-c2cncc(NCc3cccc(O)c3)c2)c1 [Compound 226, N-{3-[5-(3-Hydroxy-benzylamino)-pyridin-3-yl]-phenyl}-methanesulfonamide]",A (A: 50-90% inhibition at 10 μM enzyme concentration)
4,"Oc1cccc(CCNc2cncc(-c3cccc(O)c3)c2)c1 [Compound 244, 3-{5-[2-(3-Hydroxy-phenyl)-ethylamino]-pyridin-3-yl}-phenol]",A (A: 50-90% inhibition at 10 μM enzyme concentration)
5,"CN(C)CCNC(=O)c1cccc(-c2cncc(NCc3cccc(O)c3)c2)c1 [Compound 224, N-(2-Dimethylamino-ethyl)-3-[5-(3-hydroxy-benzylamino)-pyridin-3-yl]-benzamide]",A (A: 50-90% inhibition at 10 μM enzyme concentration)
6,"COc1cncc(-c2cncc(NCc3cccc(O)c3)c2)c1 [Compound 222, 3-[(5′-Methoxy-[3,3′]bipyridinyl-5-ylamino)-methyl]-phenol]",A (A: 50-90% inhibition at 10 μM enzyme concentration)

# Biological target: p56Lck (Homo sapiens, UniProt P06239)
# Assay: as above
# Type: biochemical
# Settings: 1 h; class symbol: % inhibition at 10 μM or IC50; read-out: Inhibitory effect on target p56Lck
# Description: as §1, §2, §3
# p56Lck, sequence (P06239 whole entry, species assumed): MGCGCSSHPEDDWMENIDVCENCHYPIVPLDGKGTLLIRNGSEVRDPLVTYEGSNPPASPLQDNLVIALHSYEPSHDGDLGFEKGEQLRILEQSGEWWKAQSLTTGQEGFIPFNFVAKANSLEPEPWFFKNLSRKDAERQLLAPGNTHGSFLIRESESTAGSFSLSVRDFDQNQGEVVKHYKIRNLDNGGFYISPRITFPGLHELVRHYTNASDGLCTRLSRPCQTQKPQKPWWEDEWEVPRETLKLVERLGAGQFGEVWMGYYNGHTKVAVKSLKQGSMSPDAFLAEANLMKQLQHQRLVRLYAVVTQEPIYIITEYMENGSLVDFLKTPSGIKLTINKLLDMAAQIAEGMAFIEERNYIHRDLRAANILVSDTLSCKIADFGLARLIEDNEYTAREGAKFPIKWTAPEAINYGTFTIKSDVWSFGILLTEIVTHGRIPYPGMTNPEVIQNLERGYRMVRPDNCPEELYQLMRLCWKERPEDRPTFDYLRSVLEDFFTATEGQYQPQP
row,Compound,inhibition at 10 µM
1,"CS(=O)(=O)c1ccc(-c2cncc(NCc3cccc(O)c3)c2)cc1 [Compound 206, 3-{[5-(4-Methanesulfonyl-phenyl)-pyridin-3-ylamino]-methyl}-phenol]",50 to 90%
2,"COc1cncc(-c2cncc(NCc3cccc(O)c3)c2)c1 [Compound 222, 3-[(5′-Methoxy-[3,3′]bipyridinyl-5-ylamino)-methyl]-phenol]",50 to 90%
3,"Oc1cccc(CNc2cncc(-c3cncnc3)c2)c1 [Compound 195, 3-[(5-Pyrimidin-5-yl-pyridin-3-ylamino)-methyl]-phenol]",50 to 90%

# Further lines, results first:
row,inhibition at 10 µM,Compound
1,50 to 90%,"CS(=O)(=O)Nc1cccc(-c2cncc(NCc3cccc(O)c3)c2)c1 [Compound 226, N-{3-[5-(3-Hydroxy-benzylamino)-pyridin-3-yl]-phenyl}-methanesulfonamide]"
2,50 to 90%,"Oc1cccc(CCNc2cncc(-c3cccc(O)c3)c2)c1 [Compound 244, 3-{5-[2-(3-Hydroxy-phenyl)-ethylamino]-pyridin-3-yl}-phenol]"
3,50 to 90%,"CN(C)CCNC(=O)c1cccc(-c2cncc(NCc3cccc(O)c3)c2)c1 [Compound 224, N-(2-Dimethylamino-ethyl)-3-[5-(3-hydroxy-benzylamino)-pyridin-3-yl]-benzamide]"

# Same assay, conditions: class symbol: % inhibition at 10 μM or IC50
row,Compound,Inhibitory effect on target p56Lck
1,"COC(=O)c1cccc(CNc2cncc(-c3cccc(O)c3)c2)c1 [Compound 264, 3-{[5-(3-Hydroxy-phenyl)-pyridin-3-ylamino]mθthyl}-benzoic acid methyl ester]",A (A: 50-90% inhibition at 10 μM enzyme concentration)
2,"COc1ccc(-c2cncc(NCc3cccc(O)c3)c2)cn1 [Compound 207, S—K6′-Methoxy-fS.S′lbipyridinyl-δ-ylaminoJ-mθthyll-phenol]",A (A: 50-90% inhibition at 10 μM enzyme concentration)

# Biological target: cRaf (Homo sapiens, UniProt P04049)
# Assay: as above
# Type: biochemical
# Settings: 1 h; class symbol: % inhibition at 10 μM or IC50; read-out: Inhibitory effect on target cRaf
# Description: as §1, §2, §3
# cRaf, sequence (P04049 whole entry, species assumed): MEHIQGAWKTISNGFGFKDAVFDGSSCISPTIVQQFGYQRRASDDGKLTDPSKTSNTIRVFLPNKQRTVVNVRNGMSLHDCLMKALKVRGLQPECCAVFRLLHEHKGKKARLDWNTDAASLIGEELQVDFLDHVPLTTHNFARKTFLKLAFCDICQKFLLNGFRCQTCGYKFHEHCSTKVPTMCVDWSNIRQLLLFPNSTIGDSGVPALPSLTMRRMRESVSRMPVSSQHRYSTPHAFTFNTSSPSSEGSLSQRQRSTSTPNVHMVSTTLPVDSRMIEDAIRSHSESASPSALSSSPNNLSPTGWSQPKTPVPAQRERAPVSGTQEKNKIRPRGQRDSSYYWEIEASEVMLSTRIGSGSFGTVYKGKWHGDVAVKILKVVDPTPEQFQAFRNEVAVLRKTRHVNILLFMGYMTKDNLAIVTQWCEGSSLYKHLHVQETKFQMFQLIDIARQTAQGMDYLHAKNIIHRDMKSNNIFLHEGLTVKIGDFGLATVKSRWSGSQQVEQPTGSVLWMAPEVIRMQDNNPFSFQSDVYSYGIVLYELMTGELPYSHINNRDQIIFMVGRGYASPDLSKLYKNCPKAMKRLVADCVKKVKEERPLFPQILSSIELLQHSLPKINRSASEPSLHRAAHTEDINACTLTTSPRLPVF
row,inhibition at 10 µM,Compound
1,50 to 90%,"Oc1cccc(CNc2cncc(-c3cncnc3)c2)c1 [Compound 195, 3-[(5-Pyrimidin-5-yl-pyridin-3-ylamino)-methyl]-phenol]"

# Same assay, conditions: class symbol: % inhibition at 10 μM or IC50
row,Compound,Inhibitory effect on target cRaf
1,"COC(=O)c1cccc(CNc2cncc(-c3cccc(O)c3)c2)c1 [Compound 264, 3-{[5-(3-Hydroxy-phenyl)-pyridin-3-ylamino]mθthyl}-benzoic acid methyl ester]",A (A: 50-90% inhibition at 10 μM enzyme concentration)

# Biological target: Abl (Homo sapiens, UniProt P00519)
# Assay: as above
# Type: biochemical
# Settings: 1 h; class symbol: % inhibition at 10 μM or IC50; read-out: Inhibitory effect on target Abl
# Description: as §1, §2, §3
# Abl, sequence (P00519 whole entry, species assumed): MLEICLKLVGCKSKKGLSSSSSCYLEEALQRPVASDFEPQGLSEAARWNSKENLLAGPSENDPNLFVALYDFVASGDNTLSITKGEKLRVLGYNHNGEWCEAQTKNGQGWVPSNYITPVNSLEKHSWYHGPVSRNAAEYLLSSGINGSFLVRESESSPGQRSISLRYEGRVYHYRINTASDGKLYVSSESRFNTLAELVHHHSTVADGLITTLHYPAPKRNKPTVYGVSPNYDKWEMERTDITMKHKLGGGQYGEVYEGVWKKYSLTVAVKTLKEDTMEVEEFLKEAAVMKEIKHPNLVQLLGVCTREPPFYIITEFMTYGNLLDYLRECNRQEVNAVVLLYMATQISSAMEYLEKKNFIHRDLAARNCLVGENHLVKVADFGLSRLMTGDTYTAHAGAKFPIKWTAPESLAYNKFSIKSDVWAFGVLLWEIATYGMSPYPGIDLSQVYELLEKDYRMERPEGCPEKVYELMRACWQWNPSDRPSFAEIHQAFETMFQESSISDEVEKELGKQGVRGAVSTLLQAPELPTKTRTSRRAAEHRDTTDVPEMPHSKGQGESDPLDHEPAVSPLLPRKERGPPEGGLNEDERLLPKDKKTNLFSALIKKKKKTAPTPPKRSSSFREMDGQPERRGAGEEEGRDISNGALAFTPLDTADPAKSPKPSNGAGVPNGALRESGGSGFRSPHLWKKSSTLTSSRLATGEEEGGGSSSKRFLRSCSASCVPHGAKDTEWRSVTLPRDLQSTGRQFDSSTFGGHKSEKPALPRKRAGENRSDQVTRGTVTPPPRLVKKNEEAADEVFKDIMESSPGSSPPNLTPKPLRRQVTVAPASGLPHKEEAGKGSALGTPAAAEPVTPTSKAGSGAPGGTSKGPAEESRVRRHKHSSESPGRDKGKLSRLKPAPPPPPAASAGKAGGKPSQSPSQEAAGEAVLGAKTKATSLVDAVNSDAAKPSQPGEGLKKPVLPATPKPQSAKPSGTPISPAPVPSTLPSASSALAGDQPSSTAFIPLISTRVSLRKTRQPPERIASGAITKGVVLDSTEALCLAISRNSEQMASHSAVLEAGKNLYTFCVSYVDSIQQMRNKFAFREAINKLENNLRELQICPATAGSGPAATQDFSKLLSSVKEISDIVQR
row,inhibition at 10 µM,Compound
1,50 to 90%,"CS(=O)(=O)Nc1cccc(-c2cncc(NCc3cccc(O)c3)c2)c1 [Compound 226, N-{3-[5-(3-Hydroxy-benzylamino)-pyridin-3-yl]-phenyl}-methanesulfonamide]"
2,50 to 90%,"Oc1cccc(CCNc2cncc(-c3cccc(O)c3)c2)c1 [Compound 244, 3-{5-[2-(3-Hydroxy-phenyl)-ethylamino]-pyridin-3-yl}-phenol]"
3,50 to 90%,"CN(C)CCNC(=O)c1cccc(-c2cncc(NCc3cccc(O)c3)c2)c1 [Compound 224, N-(2-Dimethylamino-ethyl)-3-[5-(3-hydroxy-benzylamino)-pyridin-3-yl]-benzamide]"
4,50 to 90%,"COc1cncc(-c2cncc(NCc3cccc(O)c3)c2)c1 [Compound 222, 3-[(5′-Methoxy-[3,3′]bipyridinyl-5-ylamino)-methyl]-phenol]"

# Biological target: RICK (Homo sapiens, UniProt O43353)
# Assay: as above
# Type: biochemical
# Settings: class symbol: % inhibition at 10 μM or IC50
# Description: as §1, §2, §3
# RICK, sequence (O43353 whole entry, species assumed): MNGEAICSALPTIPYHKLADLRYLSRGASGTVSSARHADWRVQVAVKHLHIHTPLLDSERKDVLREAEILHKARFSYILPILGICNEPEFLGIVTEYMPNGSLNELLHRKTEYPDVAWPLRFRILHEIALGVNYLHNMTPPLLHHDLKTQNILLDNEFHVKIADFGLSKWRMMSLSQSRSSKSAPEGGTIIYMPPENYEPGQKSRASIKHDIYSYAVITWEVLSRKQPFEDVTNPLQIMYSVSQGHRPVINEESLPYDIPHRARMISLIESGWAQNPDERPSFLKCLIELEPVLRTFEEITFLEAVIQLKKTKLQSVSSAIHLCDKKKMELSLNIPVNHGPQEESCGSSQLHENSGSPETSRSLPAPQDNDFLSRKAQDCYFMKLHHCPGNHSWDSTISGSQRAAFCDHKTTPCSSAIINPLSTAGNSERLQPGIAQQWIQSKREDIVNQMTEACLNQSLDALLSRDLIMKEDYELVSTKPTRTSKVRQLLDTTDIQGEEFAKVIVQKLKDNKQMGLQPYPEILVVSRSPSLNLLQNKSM
row,Compound,Inhibitory effect on target RICK
1,"COC(=O)c1cccc(CNc2cncc(-c3cccc(O)c3)c2)c1 [Compound 264, 3-{[5-(3-Hydroxy-phenyl)-pyridin-3-ylamino]mθthyl}-benzoic acid methyl ester]",A (A: 50-90% inhibition at 10 μM enzyme concentration)
2,"COc1ccc(-c2cncc(NCc3cccc(O)c3)c2)cn1 [Compound 207, S—K6′-Methoxy-fS.S′lbipyridinyl-δ-ylaminoJ-mθthyll-phenol]",C (C: IC50 measured: <1 μM)
3,"CC(=O)Nc1cccc(-c2cncc(Nc3ccccc3)c2)c1 [Compound 194, N-[3-(5-Phenylamino-pyridin-3-yl)-phenyl]-acetamide]",C (C: IC50 measured: <1 μM)
4,"CS(=O)(=O)c1ccc(-c2cncc(NCc3cccc(O)c3)c2)cc1 [Compound 206, 3-{[5-(4-Methanesulfonyl-phenyl)-pyridin-3-ylamino]-methyl}-phenol]",C (C: IC50 measured: <1 μM)
5,"COc1cncc(-c2cncc(NCc3cccc(O)c3)c2)c1 [Compound 222, 3-[(5′-Methoxy-[3,3′]bipyridinyl-5-ylamino)-methyl]-phenol]",C (C: IC50 measured: <1 μM)
6,"Oc1cccc(CNc2cncc(-c3cncnc3)c2)c1 [Compound 195, 3-[(5-Pyrimidin-5-yl-pyridin-3-ylamino)-methyl]-phenol]",C (C: IC50 measured: <1 μM)

# The next lines start with the values.
row,Inhibitory effect on target RICK,Compound
1,C (C: IC50 measured: <1 μM),"CS(=O)(=O)Nc1cccc(-c2cncc(NCc3cccc(O)c3)c2)c1 [Compound 226, N-{3-[5-(3-Hydroxy-benzylamino)-pyridin-3-yl]-phenyl}-methanesulfonamide]"
2,C (C: IC50 measured: <1 μM),"Oc1cccc(CCNc2cncc(-c3cccc(O)c3)c2)c1 [Compound 244, 3-{5-[2-(3-Hydroxy-phenyl)-ethylamino]-pyridin-3-yl}-phenol]"
3,C (C: IC50 measured: <1 μM),"CN(C)CCNC(=O)c1cccc(-c2cncc(NCc3cccc(O)c3)c2)c1 [Compound 224, N-(2-Dimethylamino-ethyl)-3-[5-(3-hydroxy-benzylamino)-pyridin-3-yl]-benzamide]"

# Biological target: EGFR (Homo sapiens, UniProt P00533)
# Assay: as above
# Type: biochemical
# Settings: class symbol: % inhibition at 10 μM or IC50
# Description: as §1, §2, §3
# EGFR, sequence (P00533 25-1210, species assumed): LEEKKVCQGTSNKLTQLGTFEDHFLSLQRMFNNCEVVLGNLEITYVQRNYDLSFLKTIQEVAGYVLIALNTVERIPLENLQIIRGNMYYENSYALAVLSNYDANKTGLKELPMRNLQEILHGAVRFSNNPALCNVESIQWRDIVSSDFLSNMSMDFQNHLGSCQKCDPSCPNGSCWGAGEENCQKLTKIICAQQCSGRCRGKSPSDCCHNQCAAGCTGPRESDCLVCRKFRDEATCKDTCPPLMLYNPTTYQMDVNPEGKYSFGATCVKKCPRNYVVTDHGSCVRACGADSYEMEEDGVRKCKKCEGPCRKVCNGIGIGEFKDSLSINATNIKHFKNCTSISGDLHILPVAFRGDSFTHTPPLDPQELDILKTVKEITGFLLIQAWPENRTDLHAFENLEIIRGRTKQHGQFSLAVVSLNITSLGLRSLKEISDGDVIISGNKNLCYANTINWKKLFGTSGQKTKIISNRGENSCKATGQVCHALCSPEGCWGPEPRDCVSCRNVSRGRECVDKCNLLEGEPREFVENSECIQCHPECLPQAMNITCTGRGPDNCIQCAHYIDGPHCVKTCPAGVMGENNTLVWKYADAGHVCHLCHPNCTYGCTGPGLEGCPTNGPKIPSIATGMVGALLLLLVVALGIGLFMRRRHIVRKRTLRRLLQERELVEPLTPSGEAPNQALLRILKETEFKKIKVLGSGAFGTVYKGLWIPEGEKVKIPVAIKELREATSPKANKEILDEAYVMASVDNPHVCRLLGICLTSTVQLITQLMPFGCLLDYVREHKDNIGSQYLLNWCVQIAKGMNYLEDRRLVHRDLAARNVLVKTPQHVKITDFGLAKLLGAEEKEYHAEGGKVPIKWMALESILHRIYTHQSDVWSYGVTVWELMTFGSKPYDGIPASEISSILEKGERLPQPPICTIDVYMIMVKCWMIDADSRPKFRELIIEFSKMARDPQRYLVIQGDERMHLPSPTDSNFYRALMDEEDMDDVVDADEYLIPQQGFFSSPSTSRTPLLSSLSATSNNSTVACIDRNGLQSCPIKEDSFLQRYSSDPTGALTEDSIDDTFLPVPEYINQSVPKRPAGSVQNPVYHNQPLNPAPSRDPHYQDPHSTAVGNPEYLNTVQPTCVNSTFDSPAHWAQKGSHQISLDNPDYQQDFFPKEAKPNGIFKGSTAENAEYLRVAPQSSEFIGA
row,Compound,Inhibitory effect on target EGFR
1,"COC(=O)c1cccc(CNc2cncc(-c3cccc(O)c3)c2)c1 [Compound 264, 3-{[5-(3-Hydroxy-phenyl)-pyridin-3-ylamino]mθthyl}-benzoic acid methyl ester]",A (A: 50-90% inhibition at 10 μM enzyme concentration)
2,"CS(=O)(=O)Nc1cccc(-c2cncc(NCc3cccc(O)c3)c2)c1 [Compound 226, N-{3-[5-(3-Hydroxy-benzylamino)-pyridin-3-yl]-phenyl}-methanesulfonamide]",A (A: 50-90% inhibition at 10 μM enzyme concentration)
3,"Oc1cccc(CCNc2cncc(-c3cccc(O)c3)c2)c1 [Compound 244, 3-{5-[2-(3-Hydroxy-phenyl)-ethylamino]-pyridin-3-yl}-phenol]",B (B: >90% inhibition at 10 μM enzyme concentration)
4,"CN(C)CCNC(=O)c1cccc(-c2cncc(NCc3cccc(O)c3)c2)c1 [Compound 224, N-(2-Dimethylamino-ethyl)-3-[5-(3-hydroxy-benzylamino)-pyridin-3-yl]-benzamide]",A (A: 50-90% inhibition at 10 μM enzyme concentration)
